Legend:
Vasopressin V1a receptor = Vasopressin V1a receptor (Homo sapiens, UniProt P37288); assay type: cell membranes, Membrane; settings: hek293; also: in other assays of this panel Not Active means under 50% inhibition at 10 µM
[1] = molecular target: T1, C-X-C chemokine receptor type 2 (Homo sapiens, UniProt P25025); assay type: cell membranes, Membrane; settings: cho-k1; also: in other assays of this panel Not Active means under 50% inhibition at 10 µM
T1 sequence (P25025 whole entry): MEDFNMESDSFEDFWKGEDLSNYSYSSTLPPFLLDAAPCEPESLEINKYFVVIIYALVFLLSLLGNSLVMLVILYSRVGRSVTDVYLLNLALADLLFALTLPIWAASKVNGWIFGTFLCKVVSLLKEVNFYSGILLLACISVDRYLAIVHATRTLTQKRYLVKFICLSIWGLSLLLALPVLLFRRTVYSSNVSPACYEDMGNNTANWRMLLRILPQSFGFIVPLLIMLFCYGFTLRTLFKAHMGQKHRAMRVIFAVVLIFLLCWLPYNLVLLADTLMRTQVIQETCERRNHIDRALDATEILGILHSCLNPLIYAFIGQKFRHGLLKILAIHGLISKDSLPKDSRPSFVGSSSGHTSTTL

[2] = molecular target: T2, Cholecystokinin receptor type A (Homo sapiens, UniProt P32238); assay type: cell membranes, Membrane; settings: 1321-n1; also: in other assays of this panel Not Active means under 50% inhibition at 10 µM
T2 sequence (P32238 whole entry): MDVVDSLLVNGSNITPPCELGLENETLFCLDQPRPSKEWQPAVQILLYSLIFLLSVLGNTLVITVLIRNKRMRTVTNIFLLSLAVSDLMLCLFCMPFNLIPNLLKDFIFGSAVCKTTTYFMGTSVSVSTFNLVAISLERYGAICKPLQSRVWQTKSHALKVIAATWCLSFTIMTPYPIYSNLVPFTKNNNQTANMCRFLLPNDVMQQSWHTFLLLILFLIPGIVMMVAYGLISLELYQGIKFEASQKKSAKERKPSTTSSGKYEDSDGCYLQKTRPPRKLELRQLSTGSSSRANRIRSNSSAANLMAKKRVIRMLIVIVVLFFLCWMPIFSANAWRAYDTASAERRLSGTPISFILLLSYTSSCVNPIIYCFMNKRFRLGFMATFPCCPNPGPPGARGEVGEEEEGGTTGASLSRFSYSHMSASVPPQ

Endothelin-1 receptor = molecular target: T3, Endothelin-1 receptor (Homo sapiens, UniProt P25101); assay type: cell membranes, Membrane; settings: cho-k1; also: in other assays of this panel Not Active means under 50% inhibition at 10 µM
T3 sequence (P25101 whole entry): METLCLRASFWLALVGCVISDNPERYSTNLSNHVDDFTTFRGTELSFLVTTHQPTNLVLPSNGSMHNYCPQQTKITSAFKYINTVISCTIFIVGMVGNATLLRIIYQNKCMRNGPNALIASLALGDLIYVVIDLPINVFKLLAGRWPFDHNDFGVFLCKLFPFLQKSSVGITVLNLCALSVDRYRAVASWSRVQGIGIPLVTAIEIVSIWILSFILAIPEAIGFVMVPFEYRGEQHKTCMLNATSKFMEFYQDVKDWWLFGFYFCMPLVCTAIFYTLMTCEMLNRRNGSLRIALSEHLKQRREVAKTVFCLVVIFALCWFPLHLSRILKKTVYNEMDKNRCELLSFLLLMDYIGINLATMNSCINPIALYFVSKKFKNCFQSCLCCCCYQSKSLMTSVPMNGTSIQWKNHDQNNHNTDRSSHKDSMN

Mu-type opioid receptor = Mu-type opioid receptor (Homo sapiens, UniProt P35372); test: DRUGMATRIX: Opiate mu (OP3, MOP) radioligand binding (ligand: [3H] Diprenorphine); assay type: cell membranes, CHO-K1, Membrane; settings: Not Active = under 50% inhibition at 10 µM
[3] = DRUGMATRIX: Phosphodiesterase PDE4 enzyme inhibition (substrate: [3H]cAMP + cAMP); settings: u-937; Not Active = under 50% inhibition at 10 µM
[4] = molecular target: T4, Angiotensin-converting enzyme (Oryctolagus cuniculus, UniProt P12822); test: biochemical; assay type: tissue-based, Lung
T4 sequence (P12822 whole entry): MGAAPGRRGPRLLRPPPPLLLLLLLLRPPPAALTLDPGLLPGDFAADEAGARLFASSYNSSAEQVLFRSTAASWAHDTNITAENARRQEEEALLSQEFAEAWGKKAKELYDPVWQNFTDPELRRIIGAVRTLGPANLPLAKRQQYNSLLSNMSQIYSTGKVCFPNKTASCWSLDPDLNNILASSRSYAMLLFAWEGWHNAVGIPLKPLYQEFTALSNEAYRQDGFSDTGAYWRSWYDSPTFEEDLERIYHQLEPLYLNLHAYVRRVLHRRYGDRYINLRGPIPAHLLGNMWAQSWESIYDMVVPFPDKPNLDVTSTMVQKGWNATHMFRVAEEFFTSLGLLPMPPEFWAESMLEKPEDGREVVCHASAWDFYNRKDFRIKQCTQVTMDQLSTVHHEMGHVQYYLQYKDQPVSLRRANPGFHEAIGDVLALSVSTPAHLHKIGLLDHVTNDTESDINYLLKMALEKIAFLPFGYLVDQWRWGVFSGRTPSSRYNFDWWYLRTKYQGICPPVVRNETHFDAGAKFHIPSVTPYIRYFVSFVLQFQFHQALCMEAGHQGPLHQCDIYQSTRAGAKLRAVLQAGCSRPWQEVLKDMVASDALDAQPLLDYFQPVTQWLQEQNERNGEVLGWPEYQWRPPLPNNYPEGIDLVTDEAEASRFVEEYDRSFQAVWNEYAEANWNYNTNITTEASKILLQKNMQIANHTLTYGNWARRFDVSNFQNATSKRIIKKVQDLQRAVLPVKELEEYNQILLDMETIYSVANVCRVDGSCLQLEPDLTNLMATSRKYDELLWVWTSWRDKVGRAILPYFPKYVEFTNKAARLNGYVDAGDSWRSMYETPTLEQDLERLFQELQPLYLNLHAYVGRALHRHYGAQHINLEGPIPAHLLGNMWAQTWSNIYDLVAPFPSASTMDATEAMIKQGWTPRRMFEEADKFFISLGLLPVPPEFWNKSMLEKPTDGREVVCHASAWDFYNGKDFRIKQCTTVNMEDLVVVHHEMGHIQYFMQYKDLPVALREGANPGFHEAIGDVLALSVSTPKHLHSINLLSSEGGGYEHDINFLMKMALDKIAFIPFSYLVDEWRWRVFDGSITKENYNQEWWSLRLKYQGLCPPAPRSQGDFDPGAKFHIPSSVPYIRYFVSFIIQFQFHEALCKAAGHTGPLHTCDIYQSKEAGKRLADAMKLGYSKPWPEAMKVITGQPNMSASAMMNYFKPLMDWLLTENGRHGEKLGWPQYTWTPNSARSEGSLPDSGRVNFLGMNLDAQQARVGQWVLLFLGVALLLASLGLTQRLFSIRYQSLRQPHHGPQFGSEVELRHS

Mu-type opioid receptor, sequence (P35372 whole entry): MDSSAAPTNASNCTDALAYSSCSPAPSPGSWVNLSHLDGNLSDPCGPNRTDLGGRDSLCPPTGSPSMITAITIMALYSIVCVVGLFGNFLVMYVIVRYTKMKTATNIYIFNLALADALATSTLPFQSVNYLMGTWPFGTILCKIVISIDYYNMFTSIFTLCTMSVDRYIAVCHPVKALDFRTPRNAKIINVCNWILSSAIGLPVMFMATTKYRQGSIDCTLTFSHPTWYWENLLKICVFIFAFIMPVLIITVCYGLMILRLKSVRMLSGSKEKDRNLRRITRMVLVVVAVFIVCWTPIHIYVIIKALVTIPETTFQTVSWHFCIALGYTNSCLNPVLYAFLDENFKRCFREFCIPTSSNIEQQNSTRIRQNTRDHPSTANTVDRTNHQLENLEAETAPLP
Vasopressin V1a receptor, sequence (P37288 whole entry): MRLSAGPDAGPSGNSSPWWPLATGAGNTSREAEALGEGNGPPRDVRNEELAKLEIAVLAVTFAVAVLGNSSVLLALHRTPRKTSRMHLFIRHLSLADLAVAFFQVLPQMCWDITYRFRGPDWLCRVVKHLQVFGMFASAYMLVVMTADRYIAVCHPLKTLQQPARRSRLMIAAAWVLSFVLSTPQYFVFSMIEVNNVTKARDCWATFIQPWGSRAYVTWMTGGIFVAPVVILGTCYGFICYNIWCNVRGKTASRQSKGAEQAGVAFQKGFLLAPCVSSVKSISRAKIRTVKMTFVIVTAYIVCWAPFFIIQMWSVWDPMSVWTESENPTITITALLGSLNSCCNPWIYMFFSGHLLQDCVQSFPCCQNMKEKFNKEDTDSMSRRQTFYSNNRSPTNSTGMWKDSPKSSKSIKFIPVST

Row | Structure (SMILES) | IC50 (Vasopressin V1a receptor) | IC50 [1] | IC50 [2] | IC50 (Endothelin-1 receptor) | Ki (Mu-type opioid receptor) [µM] | IC50 (Mu-type opioid receptor; read-out: IC50) [µM] | IC50 [3] | Ki [3] | IC50 [4] | IC50 (Mu-type opioid receptor; cho-k1)
1 | Oc1c(Cl)cc(Cl)cc1Sc1cc(Cl)cc(Cl)c1O [BITHIONOL] | Not Active | Not Active | Not Active | Not Active | 2.24 | 5.51 | Not Active | Not Active | Not Active | –
2 | Brc1ccccc1 [BROMOBENZENE] | Not Active | Not Active | Not Active | Not Active | – | – | Not Active | Not Active | Not Active | Not Active
3 | CCCCOC(=O)c1ccc(N)cc1 [BUTAMBEN] | Not Active | Not Active | Not Active | Not Active | – | – | Not Active | Not Active | Not Active | Not Active
4 | CC[C@@]1(O)C(=O)OCc2c1cc1n(c2=O)Cc2cc3ccccc3nc2-1 [CAMPTOTHECIN] | Not Active | Not Active | Not Active | Not Active | – | – | Not Active | Not Active | Not Active | Not Active
5 | COCc1c(C(C)C)nc(C(C)C)c(/C=C/[C@@H](O)C[C@@H](O)CC(=O)O)c1-c1ccc(F)cc1 [CERIVASTATIN] | Not Active | Not Active | Not Active | Not Active | – | – | Not Active | Not Active | Not Active | Not Active
6 | CC(=O)O[C@]1(C(C)=O)CC[C@H]2[C@@H]3C=C(Cl)C4=CC(=O)CC[C@]4(C)[C@H]3CC[C@@]21C [CHLORMADINONE ACETATE] | Not Active | Not Active | Not Active | Not Active | – | – | Not Active | Not Active | Not Active | Not Active
7 | O=C1CCc2cc(OCCCCc3nnnn3C3CCCCC3)ccc2N1 [CILOSTAZOL] | Not Active | Not Active | Not Active | Not Active | – | – | Not Active | Not Active | Not Active | Not Active
8 | O=C(O)c1cn(C2CC2)c2cc(N3CCNCC3)c(F)cc2c1=O [CIPROFLOXACIN] | Not Active | Not Active | Not Active | Not Active | – | – | Not Active | Not Active | Not Active | Not Active
9 | CN(C)CCCC1(c2ccc(F)cc2)OCc2cc(C#N)ccc21 (centres undefined) [CITALOPRAM] | Not Active | Not Active | Not Active | Not Active | – | – | Not Active | Not Active | Not Active | Not Active
10 | COC(=O)[C@H](c1ccccc1Cl)N1CCc2sccc2C1 [CLOPIDOGREL] | Not Active | Not Active | Not Active | Not Active | – | – | Not Active | Not Active | Not Active | Not Active
11 | C[C@]12CCC(=O)C=C1CC[C@@H]1[C@@H]2C(=O)C[C@@]2(C)[C@H]1CC[C@]2(O)C(=O)CO [CORTISONE] | Not Active | Not Active | Not Active | Not Active | – | – | Not Active | Not Active | Not Active | Not Active
12 | Cc1ccccc1N1CCN(CCc2nnc3n2CCCC3)CC1 [DAPIPRAZOLE] | Not Active | Not Active | Not Active | Not Active | – | – | Not Active | Not Active | Not Active | Not Active
13 | CC1=Nc2ccc(Cl)cc2S(=O)(=O)N1 [DIAZOXIDE] | Not Active | Not Active | Not Active | Not Active | – | – | Not Active | Not Active | Not Active | Not Active
14 | CC(=O)OCC(=O)[C@@]1(OC(C)=O)[C@@H](C)C[C@H]2[C@@H]3C[C@H](F)C4=CC(=O)C=C[C@]4(C)[C@@]3(F)[C@@H](O)C[C@@]21C [DIFLORASONE DIACETATE] | Not Active | Not Active | Not Active | Not Active | – | – | Not Active | Not Active | Not Active | Not Active
15 | COc1ccc([C@@H]2Sc3ccccc3N(CCN(C)C)C(=O)[C@@H]2OC(C)=O)cc1 [DILTIAZEM] | Not Active | Not Active | Not Active | Not Active | – | – | Not Active | Not Active | Not Active | Not Active
16 | CCc1ccc(C(=O)C(C)CN2CCCCC2)cc1 (centres undefined) [EPERISONE] | Not Active | Not Active | Not Active | Not Active | – | – | Not Active | Not Active | Not Active | Not Active
